How the values were obtained:
[1] = CYP reaction phenotyping: CYP control (negative control without CYP enzymes); conditions: pH 7.4
Description: The reaction was initiated by the addition of NADPH, followed by incubation at 37° C.

CYP2C9 = CYP2C9 (Homo sapiens, UniProt P11712); conditions: 4 μM, pH 7.4
Description: The remaining of TA (expressed as the peak area ratio of test article to IS) was determined by LC-MS/MS. CYP enzyme activities of the HLM were verified in parallel by determining the formation of individual CYP probe metabolites by LC-MS/MS using standard curves.

hrCYP2C9 = hrCYP2C9 (Homo sapiens, UniProt P11712)
Sequence of hrCYP2C9 (P11712 whole entry): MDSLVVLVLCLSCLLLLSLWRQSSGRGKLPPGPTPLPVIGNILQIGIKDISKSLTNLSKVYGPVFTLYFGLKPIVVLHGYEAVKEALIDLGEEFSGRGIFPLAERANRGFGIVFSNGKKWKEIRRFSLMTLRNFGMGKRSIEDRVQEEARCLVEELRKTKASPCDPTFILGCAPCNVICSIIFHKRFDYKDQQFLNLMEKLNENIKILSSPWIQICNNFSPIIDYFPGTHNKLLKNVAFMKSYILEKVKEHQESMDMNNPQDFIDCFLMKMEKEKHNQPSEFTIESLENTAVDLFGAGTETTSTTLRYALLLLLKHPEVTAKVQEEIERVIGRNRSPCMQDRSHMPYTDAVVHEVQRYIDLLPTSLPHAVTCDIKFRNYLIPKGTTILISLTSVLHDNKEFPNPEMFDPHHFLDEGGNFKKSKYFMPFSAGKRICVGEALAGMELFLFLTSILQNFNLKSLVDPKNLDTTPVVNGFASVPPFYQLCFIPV

CYP2D6 = CYP2D6 (Homo sapiens, UniProt P10635); assay: Inhibition of CYP2D6 activity in human liver microsomes; assay type: in vitro ADME; parameters: co-incubated with pooled HLM (0.25 mg protein/mL); from tissue; host or cells: pooled human liver microsomes; conditions: pooled human liver microsomes, pH 7.4, read-out: % of Control Enzyme Activity (n = 3) Average
Sequence of CYP2D6 (P10635 whole entry): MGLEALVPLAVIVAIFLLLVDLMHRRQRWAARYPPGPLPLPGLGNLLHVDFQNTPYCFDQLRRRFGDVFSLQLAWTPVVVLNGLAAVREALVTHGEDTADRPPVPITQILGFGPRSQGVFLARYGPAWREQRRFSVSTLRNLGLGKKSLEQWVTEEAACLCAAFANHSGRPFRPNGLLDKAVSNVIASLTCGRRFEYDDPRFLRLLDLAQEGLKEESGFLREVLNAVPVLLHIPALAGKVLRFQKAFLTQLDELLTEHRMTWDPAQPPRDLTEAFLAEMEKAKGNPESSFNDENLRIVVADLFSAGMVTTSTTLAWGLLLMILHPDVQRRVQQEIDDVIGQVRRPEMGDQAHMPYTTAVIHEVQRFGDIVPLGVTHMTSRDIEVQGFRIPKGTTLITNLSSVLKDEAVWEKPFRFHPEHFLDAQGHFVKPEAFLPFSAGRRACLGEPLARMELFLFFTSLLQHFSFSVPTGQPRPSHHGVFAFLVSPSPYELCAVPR

OCT2 [2] = target: T1, OCT2 (Homo sapiens, UniProt O15244); assay: OCT2 inhibitor (IC50) assessment, MPP+ uptake in transfected HEK cells; conditions: 5 μM MPP+ + 300 μM Imipramine
T1 sequence (O15244 1-555): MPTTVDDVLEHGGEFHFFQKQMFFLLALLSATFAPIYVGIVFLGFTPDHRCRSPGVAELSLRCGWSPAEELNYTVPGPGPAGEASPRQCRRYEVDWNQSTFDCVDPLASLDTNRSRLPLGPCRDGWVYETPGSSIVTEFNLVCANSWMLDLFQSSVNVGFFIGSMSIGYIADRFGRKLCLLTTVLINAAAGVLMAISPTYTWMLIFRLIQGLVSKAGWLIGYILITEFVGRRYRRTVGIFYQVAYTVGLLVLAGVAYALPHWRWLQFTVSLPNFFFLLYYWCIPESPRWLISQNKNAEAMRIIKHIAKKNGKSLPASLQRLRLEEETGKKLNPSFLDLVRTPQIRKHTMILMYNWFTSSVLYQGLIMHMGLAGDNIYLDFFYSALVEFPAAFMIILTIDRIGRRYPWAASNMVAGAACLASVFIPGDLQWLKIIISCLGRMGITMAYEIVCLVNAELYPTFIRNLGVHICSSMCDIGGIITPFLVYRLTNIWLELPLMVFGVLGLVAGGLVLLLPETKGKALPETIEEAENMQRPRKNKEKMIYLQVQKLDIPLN

OCT2 [3] = target: T1, OCT2; assay: in vitro; conditions: probe MPP+ (5 μM)
OAT3 [4] = target: T2, OAT3 (Homo sapiens, UniProt Q8TCC7); assay: OAT3 inhibitor (IC50) assessment, furosemide uptake in transfected HEK cells; conditions: 5 μM Furosemide + 100 μM Probenecid
T2 sequence (Q8TCC7 1-542): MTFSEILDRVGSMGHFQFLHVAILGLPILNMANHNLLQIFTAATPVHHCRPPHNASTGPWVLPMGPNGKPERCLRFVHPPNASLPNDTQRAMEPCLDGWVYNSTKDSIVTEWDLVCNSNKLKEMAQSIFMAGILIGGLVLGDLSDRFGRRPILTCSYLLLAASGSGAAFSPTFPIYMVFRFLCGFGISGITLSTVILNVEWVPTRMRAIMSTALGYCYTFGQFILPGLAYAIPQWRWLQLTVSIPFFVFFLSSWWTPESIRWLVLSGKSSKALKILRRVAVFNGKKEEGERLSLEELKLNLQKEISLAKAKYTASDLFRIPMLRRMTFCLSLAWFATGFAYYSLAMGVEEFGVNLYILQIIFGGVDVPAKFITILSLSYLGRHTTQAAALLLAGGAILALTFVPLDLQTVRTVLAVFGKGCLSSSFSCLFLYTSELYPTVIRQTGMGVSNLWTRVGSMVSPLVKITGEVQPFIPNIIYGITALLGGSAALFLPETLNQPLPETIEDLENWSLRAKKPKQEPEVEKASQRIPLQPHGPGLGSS

OAT3 [5] = target: T2, OAT3; assay: in vitro; conditions: probe furosemide (5 μM)
MATE2K [6] = target: T3, MATE2K (Homo sapiens, UniProt Q86VL8); assay: in vitro; conditions: probe metformin (50 μM)
T3 sequence (Q86VL8 1-566 isoform Q86VL8-3): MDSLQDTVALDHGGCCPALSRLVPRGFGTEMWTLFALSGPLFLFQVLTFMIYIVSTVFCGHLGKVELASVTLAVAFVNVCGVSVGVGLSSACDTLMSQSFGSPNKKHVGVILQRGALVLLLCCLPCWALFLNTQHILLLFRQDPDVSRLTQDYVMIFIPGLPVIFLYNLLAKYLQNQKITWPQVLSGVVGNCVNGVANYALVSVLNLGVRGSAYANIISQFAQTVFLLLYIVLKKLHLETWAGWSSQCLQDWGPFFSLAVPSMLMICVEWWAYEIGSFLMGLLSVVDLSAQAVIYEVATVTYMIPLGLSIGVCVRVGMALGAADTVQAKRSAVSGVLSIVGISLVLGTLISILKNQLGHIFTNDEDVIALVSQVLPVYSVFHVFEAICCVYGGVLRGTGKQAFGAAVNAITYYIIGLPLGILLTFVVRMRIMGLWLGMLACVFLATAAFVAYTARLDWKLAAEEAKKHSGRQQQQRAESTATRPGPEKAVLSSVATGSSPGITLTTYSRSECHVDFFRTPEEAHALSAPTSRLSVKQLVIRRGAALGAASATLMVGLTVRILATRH

MATE2K [7] = target: T3, MATE2K; assay: MATE2K inhibitor (IC50) assessment, metformin uptake in transfected HEK cells; conditions: 50 μM Metformin + 1 μM Pyrimethamine

Sequence of CYP2C9 (P11712 whole entry): as the sequence (P11712 whole entry) above

O=C(O)Cc1ccccc1Nc1c(Cl)cccc1Cl [Diclofenac]
Formation Rate [1]: 0 pmol metabolite/min/mg Supersome protein
Measured Metabolite [1]: 0 µM
Formation Rate Ratio (CYP2C9): 7.7
Formation Rate Ratio (hrCYP2C9): >>2
Formation Rate (hrCYP2C9; human, 20 min, 6 μM, pH 7.4): 845 pmol metabolite/min/mg Supersome protein
Measured Metabolite (hrCYP2C9; human, 20 min, 6 μM, pH 7.4): 1.56 µM

C=C[C@H]1C[N@@]2CC[C@H]1C[C@@H]2[C@@H](O)c1ccnc2ccc(OC)cc12 [Quinidine]
activity at 10 μM (CYP2D6): 5.61%

CN(C)CCCN1c2ccccc2CCc2ccccc21 [imipramine]
Percentage Inhibition of OCT2 (OCT2 [2]): 97.9%
inhibition at 300 μM (OCT2 [3]): 97.9%

CCCN(CCC)S(=O)(=O)c1ccc(C(=O)O)cc1 [probenecid]
Percentage Inhibition of OAT3 (OAT3 [4]): 99.1%
inhibition at 100 μM (OAT3 [5]): 99.1%

CCc1nc(N)nc(N)c1-c1ccc(Cl)cc1 [pyrimethamine]
inhibition at 1 μM (MATE2K [6]): 85.3%
Percentage Inhibition of MATE2K (MATE2K [7]): 85.3%
